Experimental data reported in patent US9434724B2, “Quinuclidines for modulating alpha 7 activity” (priority 2014, dated 2016).
Where a name gives a salt, the structure may show the parent alone. Read-outs that look alike come from different tables or passages of the source.

Tests used:
[1] = biological target: T1, rat brain nicotinic receptor (α7 NAChR) (Rattus norvegicus (Rat), UniProt Q05941); assay type: binding
Human α7 NAChR = Human α7 NAChR (Homo sapiens (Human), UniProt P36544); assay: Electrophysiology screen at 1 μM in Xenopus laevis oocytes; assay type: cell-based; conditions: 1 μM test compound; Imax = maximal current produced by 3 mM ACh
Description: Human α7 NAChR plasmid was prepared by GeneWiz from accession NM_000746.5. Human α7 NAChR mRNA was prepared by TriLink at a concentration near 1 μg/μL. The human α7 NAChR mRNA was diluted in sterile water to a working concentration near 10 ng/μL.
Oocytes were obtained from Xenopus laevis frogs and treated with collagenase by Ecocyte Bioscience. Oocytes were injected with the working concentration of α7 NAChR mRNA at a volume of 50 nL for a total of approximately 0.5 ng of α7 NAChR mRNA. Oocytes were maintained in Barth's solution at a temperature of 16° C. The Barth's solution was replaced daily.
Two-electrode voltage clamp recordings were made 3-14 days following mRNA injections at a holding voltage of −70 mV. The NAChR recordings were performed in Ca^++-free Ringer solution (115 mM NaCl, 2 mM KCl, 1.8 mM BaCl2, 5 mM HEPES; pH˜7.4) to limit Ca^++-activated chloride currents.
In all oocyte recordings, drug and wash solutions were applied using a custom-designed microcapillary “linear array” which allows rapid application of agonists. Currents were recorded on a PC-based computer (PClamp, Molecular Devices, Sunnyvale, Calif.). Responses were reported as (I/Imax), where I is the amount of current given by a selected concentration of drug and Imax is the amount of maximal current produced by a 3 mM solution of ACh.
Stocks of test compounds were prepared in DMSO. Test solutions in Ringer were prepared immediately before application of test compound (final DMSO concentration of 0.1%). The final concentration of test compound in the test solution was 1 μM. The test solution was perfused onto the oocyte until a peak current was recorded. There was approximately two minutes of wash time with only the Ringer solution between each application of agonist. Measurement of the test solution was repeated between 2 and 6 times with a two minute wash time between each application of test solution. An average of the currents for each test compound was used to define the response for the test compound.

[2] = Metabolic stability assay in human liver microsomes (HLM); assay type: in vitro ADME; conditions: 1 μM
Summary of the method: (§1)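 In Protocol 1, compound was 1 μM final with NADPH at 37 °C, sampled at 0–45 min. In Protocol 2, 1.5 μM compound with 0.75 mg/mL microsomes (pre-NADPH mix) in 0.1 M potassium phosphate, 1 mM EDTA, pH 7.4 was pre-incubated 10 min, then NADPH started the reaction. Both: LC-MS/MS % remaining versus time 0, half-life from single-phase exponential fit.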

[3] = Metabolic stability assay in rat liver microsomes (RLM); assay type: in vitro ADME; conditions: 1 μM
Summary of the method: as §1

Human plasma stability = assay type: in vitro ADME; conditions: plasma, 5 μM
Summary of the method: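 Protocol 1: 1 μM compound in pH 7.4 sodium-heparin human plasma at 37° C, sampled 0–120 min. Protocol 2: 5 μM in plasma at pH 7.4–8.0, 37° C, duplicates, sampled 0–120 min. Both: LC-MS/MS percent remaining versus t0; half-life from single-phase exponential decay.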

[4] = biological target: T1, rat brain nicotinic receptor (α7 NAChR); assay type: binding; conditions: Protocol No. 2; [3H] α-Bungarotoxin 0.4 nM, rat brain P2 membrane
[5] = Protocol No. 1, human liver microsomes
[6] = Protocol No. 1, rat liver microsomes

T1 sequence (Q05941 23-502 limits assumed): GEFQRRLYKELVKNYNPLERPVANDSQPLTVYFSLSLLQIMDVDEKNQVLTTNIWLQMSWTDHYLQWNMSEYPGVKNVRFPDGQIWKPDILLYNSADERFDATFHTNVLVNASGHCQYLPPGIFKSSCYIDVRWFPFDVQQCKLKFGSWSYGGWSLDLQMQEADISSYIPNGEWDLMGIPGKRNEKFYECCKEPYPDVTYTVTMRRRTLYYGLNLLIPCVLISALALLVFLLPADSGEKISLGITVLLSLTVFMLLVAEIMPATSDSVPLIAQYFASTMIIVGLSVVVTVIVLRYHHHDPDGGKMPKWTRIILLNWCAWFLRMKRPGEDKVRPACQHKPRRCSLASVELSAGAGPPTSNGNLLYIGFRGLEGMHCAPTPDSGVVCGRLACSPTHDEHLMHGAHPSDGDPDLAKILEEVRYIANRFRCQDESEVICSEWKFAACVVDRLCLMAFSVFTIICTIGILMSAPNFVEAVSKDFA
Human α7 NAChR, sequence (P36544 23-502 limits assumed): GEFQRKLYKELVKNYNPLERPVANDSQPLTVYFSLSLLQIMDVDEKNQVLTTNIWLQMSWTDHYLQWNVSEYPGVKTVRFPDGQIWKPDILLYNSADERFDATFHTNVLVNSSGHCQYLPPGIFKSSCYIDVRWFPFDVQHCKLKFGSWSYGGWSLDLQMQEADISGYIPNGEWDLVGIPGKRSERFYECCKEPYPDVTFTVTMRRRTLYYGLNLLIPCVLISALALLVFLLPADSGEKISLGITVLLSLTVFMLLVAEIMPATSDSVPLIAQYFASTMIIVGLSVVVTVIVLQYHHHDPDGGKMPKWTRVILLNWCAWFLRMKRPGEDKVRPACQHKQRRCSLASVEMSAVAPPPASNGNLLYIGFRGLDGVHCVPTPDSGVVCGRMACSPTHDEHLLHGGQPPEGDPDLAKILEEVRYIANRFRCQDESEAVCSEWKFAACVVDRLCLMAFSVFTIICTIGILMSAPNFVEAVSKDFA

Structure (SMILES) | IC50 [1] [nM] | Ki [1] [nM] | I/Imax (Human α7 NAChR) | HLM [2, 5] [mL/min/kg] | RLM [3, 6] [mL/min/kg] | % Remaining @ 2 h (Human plasma stability; Protocol No. 2, 37° C.) [%] | HLM ([2]; human, microsomes) [mL/min/kg] | RLM ([3]; rat, microsomes) [mL/min/kg] | % Remaining @ 2 h (Human plasma stability; human, 2 h) [%] | IC50 [4] [nM] | Ki [4] [nM]
Cl.O=C(OCC12CCN(CC1)CC2)c1c[nH]c2cccc(C(F)(F)F)c12 [Compound 80, Quinuclidin-4-ylmethyl 4-(trifluoromethyl)-1H-indole-3-carboxylate hydrochloride] | 203 | 176 | 0.032 | 5.54 | 1443.16 | 81.31 |  |  |  |  | 
Cc1cc2[nH]cc(C(=O)OCC34CCN(CC3)CC4)c2cc1C.Cl [Compound 73, Quinuclidin-4-ylmethyl 5,6-dimethyl-1H-indole-3-carboxylate hydrochloride] | 168 | 145 | 0.367 | 2.825 | 766.779 | 41.93 |  |  |  |  | 
O=C(OCC12CCN(CC1)CC2)c1c[nH]c2ccc(F)c(Cl)c12 [Compound 62, quinuclidin-4-ylmethyl 4-chloro-5-fluoro-1H-indole-3-carboxylate hydrochloride] | 113 | 97.6 | 0.171 |  |  |  | 7.061 | 498.991 | 74.02 |  | 
Cc1cc2[nH]cc(C(=O)OCC34CCN(CC3)CC4)c2cc1F [Compound 72, Quinuclidin-4-ylmethyl 5-fluoro-6-methyl-1H-indole-3-carboxylate hydrochloride] | 145 | 125 | 0.347 | 3.032 | 339.452 | 70.78 |  |  |  |  | 
COCCCOc1ccc2[nH]cc(C(=O)OCC34CCN(CC3)CC4)c2c1C [Compound 92, quinuclidin-4-ylmethyl 5-(3-methoxypropoxy)-4-methyl-1H-indole-3-carboxylate] |  |  | 0.266 |  |  |  | 10.37 | 149.88 | 64.72 | 76.1 | 133
COc1cc(Cl)cc2[nH]cc(C(=O)OCC34CCN(CC3)CC4)c12.Cl [Compound 74, quinuclidin-4-ylmethyl 6-chloro-4-methoxy-1H-indole-3-carboxylate hydrochloride] | 181 | 154 | 0.157 | 9.6502 | 342.736 | 61.85 |  |  |  |  | 
Cc1ccc2[nH]cc(C(=O)OCC34CCN(CC3)CC4)c2c1Cl [Compound 63, quinuclidin-4-ylmethyl 4-chloro-5-methyl-1H-indole-3-carboxylate] | 117 | 101 | 0.118 |  |  |  | 0.4623 | 1465.43 | 74.47 |  | 
COCCOc1ccc2[nH]cc(C(=O)OCC34CCN(CC3)CC4)c2c1C [Compound 91, quinuclidin-4-ylmethyl 5-(2-methoxyethoxy)-4-methyl-1H-indole-3-carboxylate] |  |  | 0.205 |  |  |  | 6.14 | 235.4 | 81.12 | 221 | 859
